Results taken from patent US8912169B2, “Beta-lactamase inhibitors” (VenatoRx Pharmaceuticals, Inc., priority 2012, dated 2014).

Assays:
[1] = biological target: T1, SHV-5 (Klebsiella pneumoniae, UniProt P0A3M1); assay: β-lactamase enzyme inhibition, SHV-5; type: biochemical; conditions: substrate Cefotaxime, 260 nm; read-out: Class A SHV-5 IC50
T1 construct: made in house; host or cells: E. coli BL21(DE3)
How it was run: (§1)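 Native untagged β-lactamases expressed in E. coli BL21(DE3) and purified, then pre-incubated with inhibitor 15 min at 37 °C. Hydrolysis was followed by absorbance: 100 μM nitrocefin at 486 nm for p99 AmpC and OXA-1; imipenem at 300 nm for KPC-2; cefotaxime at 260 nm for SHV-5. IC50 from initial-rate inhibition versus uninhibited controls.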

[2] = biological target: T2, KPC-2 (Klebsiella pneumoniae, UniProt Q9F663); assay: β-lactamase enzyme inhibition, KPC-2; type: biochemical; conditions: substrate imipenem, 300 nm; read-out: Class A KPC-2 IC50
T2 construct: made in house; host or cells: E. coli BL21(DE3)
How it was run: as §1

[3] = biological target: T3, VIM-2 (Escherichia coli, UniProt Q5U7L7); assay: β-lactamase enzyme inhibition, VIM-2; type: biochemical; conditions: substrate Nitrocefin 100 μM, 486 nm; read-out: Class B VIM-2 IC50
T3 construct: made in house; host or cells: E. coli BL21(DE3)
How it was run: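 Purified VIM-2 (Q sepharose, 50 mM Hepes pH 7.5, >90% purity) preincubated with inhibitor 15 min at 37° C, then nitrocefin added at 100 μM final. Hydrolysis followed at 486 nm for 10 min; IC50 from initial rates versus inhibitor-free control wells.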

[4] = biological target: T4, p99 AmpC (Enterobacter cloacae, UniProt P05364); assay: β-lactamase enzyme inhibition, p99 AmpC; type: biochemical; conditions: substrate Nitrocefin 100 μM, 486 nm; read-out: Class C AmpC IC50
T4 construct: made in house; host or cells: E. coli BL21(DE3)
How it was run: as §1

[5] = biological target: T5, OXA-1 (Escherichia coli, UniProt P13661); assay: β-lactamase enzyme inhibition, OXA-1; type: biochemical; conditions: substrate Nitrocefin 100 μM, 486 nm; read-out: Class D OXA-1 IC50
T5 construct: made in house; host or cells: E. coli BL21(DE3)
How it was run: as §1

[6] = system: E. coli ESBL4 CTX-M-15; assay: broth microdilution MIC, E. coli CTX-M-15; type: cell-based; conditions: Fixed CAZ 4 μg/mL
Source text: (§2) To determine the ability of test compounds to potentiate the inhibition of the growth of bacterial strains that produce beta-lactamase enzymes, classic cell based broth microdilution MIC assays were employed. Six bacteria strains producing beta-lactamase enzymes were used: E. coli expressing the Class A Extended Spectrum Beta-Lactamase (ESBL) CTX-M-15, E. cloacae expressing the Class C P99, K. pneumoniae expressing the Class A carbapenemase KPC-3, P. aeruginosa expressing the Class B carbapenemase VIM-2, K. pneumoniae expressing the class A carbapenemase KPC-2 and the class B carbapenemase VIM-4, and S. aureus producing the Class A penicillinase PC-1. The assay was conducted in Cation Adjusted Mueller Hinton Broth (CAMHB, BD #212322, BD Diagnostic Systems, Sparks, Md.). Bacteria strains were grown for 3-5 hours in CAMBH broth. Test compounds were added to a microtiter plate in 2-fold serial dilutions in CAMHB in a final concentration range of 32 μg/mL to 0.25 μg/ml. An overlay of CAMHB containing a Beta-lactam was added to the compounds at a final static concentration of 4 μg/ml. […] In addition to the titration of test compounds the MICs of a panel of control beta-lactams is also tested to ensure the strains are behaving consistently from test to test. Once the test compound and antibiotics are added the plates can be inoculated according to CLSI broth microdilution method. After inoculation the plates are incubated for 16-20 hours at 37° C. then the Minimal Inhibitory Concentration (MIC) of the test compound is determined visually.
(§3) Using the methodology described above in EXAMPLE III, exemplary compounds for Formula I or Formula Ia were evaluated for their ability to inhibit the growth of β-lactamase producing bacteria in the presence of a β-lactam antibiotic. […]

[7] = system: E. cl. 144200 p99 AmpC; assay: broth microdilution MIC, E. cloacae P99; type: cell-based; conditions: Fixed CAZ 4 μg/mL
Source text: as §2, §3

[8] = system: K.P. 156319 KPC-3; assay: broth microdilution MIC, K. pneumoniae KPC-3; type: cell-based; conditions: Fixed Mero 4 μg/mL
Source text: as §2, §3

[9] = system: P. aerug. Ps296 VIM-2; assay: broth microdilution MIC, P. aeruginosa VIM-2; type: cell-based; conditions: Fixed Mero 4 μg/mL
Source text: as §2
Using the methodology described above in EXAMPLE III, exemplary compounds for Formula I or Formula Ia were evaluated for their ability to inhibit the growth of β-lactamase producing bacteria in the presence of a β-lactam antibiotic.
Representative results are shown in Table 4 where A represents an MIC of the fixed β-lactam antibiotic in the presence of >32 μg/mL of a β-lactamase inhibitor of exemplary compounds, B represents the MIC in the presence of between 8 and 32 μg/mL of a β-lactamase inhibitor of exemplary compounds, and C represents the MIC in the presence of ≦4 μg/mL of a β-lactamase inhibitor of exemplary compounds. NT=Not Tested.

[10] = system: K.P. A-1797 KPC-2 VIM-4; assay: broth microdilution MIC, K. pneumoniae KPC-2 and VIM-4; type: cell-based; conditions: Fixed Mero 4 μg/mL
Source text: as §2, §3

**Q.** What does the source list for “(3R)-3-[[(1S,3S,4S)-3,4-diaminocyclohexanecarbonyl]amino]-2-hydroxy-3,4-dihydro-1,2-benzoxaborinine-8-carboxylic acid and (3R)-3-[[(1R,3R,4R)-3,4-diaminocyclohexanecarbonyl]amino]-2-hydroxy-3,4-dihydro-1,2-benzoxaborinine-8-carboxylic acid [Example 20]”?
**A.** IC50 [1]: 1000 to 10000 nM; IC50 [2]: 100 to 1000 nM; IC50 [3]: < 100 nM; IC50 [4]: < 100 nM; IC50 [5]: 100 to 1000 nM; MIC of exemplary compounds in presence of fixed β-lactams, E. coli ESBL4 CTX-M-15 [6]: C (C represents the MIC in the presence of ≦4 μg/mL of a β-lactamase inhibitor of exemplary compounds); MIC of exemplary compounds in presence of fixed β-lactams, E. cl. 144200 p99 AmpC [7]: C (C represents the MIC in the presence of ≦4 μg/mL of a β-lactamase inhibitor of exemplary compounds); MIC of exemplary compounds in presence of fixed β-lactams, K.P. 156319 KPC-3 [8]: C (C represents the MIC in the presence of ≦4 μg/mL of a β-lactamase inhibitor of exemplary compounds); MIC of exemplary compounds in presence of fixed β-lactams, P. aerug. Ps296 VIM-2 [9]: C (C represents the MIC in the presence of ≦4 μg/mL of a β-lactamase inhibitor of exemplary compounds); MIC of exemplary compounds in presence of fixed β-lactams, K.P. A-1797 KPC-2 VIM-4 [10]: B (B represents the MIC in the presence of between 8 and 32 μg/mL of a β-lactamase inhibitor of exemplary compounds)
